Reference: patent US20100331310A1, “BICYCLOAMINE DERIVATIVES” (priority 2008, published 2010)
Where a name gives a salt, the structure may show the parent alone.

Key:
[1] = target: T1, human Nav1.8 (Homo sapiens, UniProt Q9Y5Y9); assay: Membrane potential increase-inhibitory action on TTX-resistant Na channels in cells expressing human Nav1.8 gene (deltamethrin stimulation); type: cell-based
T1 construct: expressed in transfected cells
Description: A cell line expressing human Nav1.8 gene was used to evaluate the pharmacological effects of compounds of the invention.
1. A membrane potential-sensitive dye containing TTX (final concentration: 0.25 μM) was added to cells expressing human Nav1.8, prior to incubation at 37° C. for 30-60 minutes. 2. The test compound was added to the cells, and the mixture was stationed for 15-30 minutes at room temperature while shielded from light. 3. Deltamethrin (final concentration: 50 μM), a Nav1.8 channel stimulant, was added, and the change in fluorescence intensity due to increased membrane potential was measured.
The Nav1.8 channel inhibition of the test compound was determined by the following equation.

[2] = tested on: rats that exhibited ectopic firing (left saphenous nerve); assay: Suppression of ectopic firing in rats with cut saphenous nerve; type: in vivo; conditions: rat, urethane anesthesia, administration via catheter in right cervical vein; number of firings every 10 seconds; read-out: Suppressing activity on ectopic firing, ED50
Description: (1) The suppressing effect on ectopic firing was evaluated by the following method, with reference to Burchiel, K J., Exp. Neurol., 102, 249-253 (1988). […] The left saphenous nerve was exposed under urethane anesthesia (1 g/kg body weight), and an area approximately 1 cm adjacent to the cutting site was removed from the surrounding tissue. A catheter was inserted into the right cervical vein for administration of the compound. (3) The removed nerve was placed on a platinum hook electrode and covered with liquid paraffin to avoid drying of the nerve. The electrode was connected to a microelectrode amp, and the change in potential was recorded on a computer from an oscilloscope, via an A/D converter. The recorded nerve firing was evaluated based on the number of firings every 10 seconds, using analysis software (AcqKnowledge).

[3] = tested on: sodium channels in cultured rat hippocampus; conditions: cited from earlier work
[4] = tested on: ectopic firing; conditions: as described in Patent document 1; cited from earlier work

T1 sequence (Q9Y5Y9 whole entry): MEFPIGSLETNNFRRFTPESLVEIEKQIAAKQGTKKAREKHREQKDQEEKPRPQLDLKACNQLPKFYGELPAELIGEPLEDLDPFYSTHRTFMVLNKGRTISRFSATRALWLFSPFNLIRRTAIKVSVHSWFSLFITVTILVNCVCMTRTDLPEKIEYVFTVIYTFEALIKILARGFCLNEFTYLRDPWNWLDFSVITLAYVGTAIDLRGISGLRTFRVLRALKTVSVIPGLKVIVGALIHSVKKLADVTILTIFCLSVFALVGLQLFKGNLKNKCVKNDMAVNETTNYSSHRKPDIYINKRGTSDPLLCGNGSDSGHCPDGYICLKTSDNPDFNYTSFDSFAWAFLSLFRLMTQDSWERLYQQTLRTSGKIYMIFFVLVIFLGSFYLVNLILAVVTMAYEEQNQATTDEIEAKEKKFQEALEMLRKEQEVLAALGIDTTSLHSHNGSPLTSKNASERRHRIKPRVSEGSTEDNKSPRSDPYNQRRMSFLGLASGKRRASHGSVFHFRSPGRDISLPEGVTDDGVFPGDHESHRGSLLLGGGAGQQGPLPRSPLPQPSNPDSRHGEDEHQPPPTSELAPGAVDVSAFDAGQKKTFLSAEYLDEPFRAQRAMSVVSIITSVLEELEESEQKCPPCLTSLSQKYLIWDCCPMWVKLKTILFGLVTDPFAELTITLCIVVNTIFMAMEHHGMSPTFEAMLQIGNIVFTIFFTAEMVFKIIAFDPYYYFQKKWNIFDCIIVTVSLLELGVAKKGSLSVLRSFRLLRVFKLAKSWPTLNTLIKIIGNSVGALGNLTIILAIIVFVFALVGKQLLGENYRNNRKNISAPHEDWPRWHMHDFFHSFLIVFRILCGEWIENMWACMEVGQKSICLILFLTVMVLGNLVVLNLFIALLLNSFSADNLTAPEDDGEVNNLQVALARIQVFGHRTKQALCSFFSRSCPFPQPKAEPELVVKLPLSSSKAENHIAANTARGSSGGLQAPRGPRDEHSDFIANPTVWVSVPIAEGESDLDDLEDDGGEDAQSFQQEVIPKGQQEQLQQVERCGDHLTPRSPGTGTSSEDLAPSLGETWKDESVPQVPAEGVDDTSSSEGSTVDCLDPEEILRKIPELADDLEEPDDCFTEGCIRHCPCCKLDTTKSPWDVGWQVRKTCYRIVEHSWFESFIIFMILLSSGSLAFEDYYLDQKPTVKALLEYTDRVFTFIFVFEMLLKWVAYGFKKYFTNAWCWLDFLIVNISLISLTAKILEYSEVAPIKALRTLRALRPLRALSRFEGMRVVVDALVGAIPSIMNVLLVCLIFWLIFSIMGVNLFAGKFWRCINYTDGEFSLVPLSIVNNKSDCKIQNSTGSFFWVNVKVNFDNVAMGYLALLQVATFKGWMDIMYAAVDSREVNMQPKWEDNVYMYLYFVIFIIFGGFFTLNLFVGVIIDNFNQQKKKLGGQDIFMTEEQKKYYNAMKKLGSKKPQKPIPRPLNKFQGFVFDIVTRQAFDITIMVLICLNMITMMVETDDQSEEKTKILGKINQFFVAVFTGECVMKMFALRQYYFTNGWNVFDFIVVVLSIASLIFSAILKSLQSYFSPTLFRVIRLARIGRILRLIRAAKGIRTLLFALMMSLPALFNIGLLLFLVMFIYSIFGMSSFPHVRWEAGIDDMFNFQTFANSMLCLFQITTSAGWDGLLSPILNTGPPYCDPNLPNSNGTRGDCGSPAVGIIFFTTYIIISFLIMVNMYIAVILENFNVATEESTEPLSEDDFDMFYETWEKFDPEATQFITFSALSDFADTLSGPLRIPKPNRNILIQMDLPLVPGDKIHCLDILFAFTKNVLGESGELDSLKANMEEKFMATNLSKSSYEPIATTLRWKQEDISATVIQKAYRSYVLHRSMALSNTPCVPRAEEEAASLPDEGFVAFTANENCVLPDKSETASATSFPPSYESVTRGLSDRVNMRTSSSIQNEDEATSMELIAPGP

| Compound | IC50 [1] | ED50 [2] | Inhibitory activity against sodium channels [3] | Inhibitory activity against ectopic firing [4] |
| --- | --- | --- | --- | --- |
| Cc1cc(-n2c(C)nn(CC(O)CN3[C@@H]4CC[C@H]3C[C@@H](OCc3ccccc3F)C4)c2=O)on1 (stereo partly drawn) [Example 47, (Endo)-2-{3-[3-(2-fluorobenzyloxy)-8-azabicyclo[3.2.1]oct-8-yl]-2-hydroxypropyl}-5-methyl-4-(3-methyl-isoxazol-5-yl)-2,4-dihydro[1,2,4]triazol-3-one oxalate] | 1.3 µM | 0.18 mg/kg |  |  |
| O=c1[nH]cccc1CN1CC2CCCC(C1)C2/C=C/c1ccccc1F (stereo not shown) |  |  | has an inhibitory activity | inadequate |
| CN1CCn2c1nn(CC(F)CN1[C@@H]3CC[C@H]1C[C@@H](OCc1ccc(F)cc1)C3)c2=O (stereo partly drawn) [Example 112, (Endo)-2-{2-fluoro-3-[3-(4-fluorobenzyloxy)-8-azabicyclo[3.2.1]oct-8-yl]propyl}-7-methyl-2,5,6,7-tetrahydroimidazo[2,1-c][1,2,4]triazol-3-one] | 12 µM | 0.29 mg/kg |  |  |
| COC(CN1[C@@H]2CC[C@H]1C[C@@H](OCc1ccccc1F)C2)Cn1nc2ccccn2c1=O (stereo partly drawn) [Example 157, (Endo)-2-{3-[3-(2-fluorobenzyloxy)-8-azabicyclo[3.2.1]oct-8-yl]-2-methoxypropyl}-2H-[1,2,4]triazolo[4,3-a]pyridin-3-one] | 1.2 µM | 0.28 mg/kg |  |  |
| O=c1n(CCCN2[C@@H]3CC[C@H]2C[C@@H](OCc2ccccc2F)C3)nc2ccccn12 [Example 145, (Endo)-2-{3-[3-(2-fluorobenzyloxy)-8-azabicyclo[3.2.1]oct-8-yl]propyl}-2H-[1,2,4]triazolo[4,3-a]pyridin-3-one] | 0.53 µM | 0.28 mg/kg |  |  |
| O=c1nc2n(c(=O)n1CCCN1[C@@H]3CC[C@H]1C[C@@H](CCc1ccccc1F)C3)CCCC2 [Example 129, (Endo)-3-(3-{3-[2-(2-fluorophenyl)ethyl)-8-azabicyclo[3.2.1]oct-8-yl}propyl]-6,7,8,9-tetrahydropyrido[1,2-a][1,3,5]triazine-2,4-dione oxalate] | 9.8 µM | 0.13 mg/kg |  |  |
| Cc1nn(C[C@H](F)CN2C3CCC2CC(OCc2cccc(F)c2)C3)c(=O)n1C (stereo partly drawn) [Example 1, (Endo)-2-{(R)-2-fluoro-3-[3-(3-fluorobenzyloxy)-8-azabicyclo[3.2.1]oct-8-yl]propyl}-4,5-dimethyl-2,4-dihydro[1,2,4]triazol-3-one] | 3.2 µM | 0.14 mg/kg |  |  |
| Cc1nn(C[C@H](F)CN2C3CCC2CC(OCc2ccccc2CF)C3)c(=O)n1C (stereo partly drawn) [Example 6, (Endo)-2-{(R)-2-fluoro-3-[3-(2-fluoromethylbenzyloxy)-8-azabicyclo[3.2.1]oct-8-yl]propyl}-4,5-dimethyl-2,4-dihydro[1,2,4]triazol-3-one] | 5.2 µM | 0.27 mg/kg |  |  |
| O=c1n(-c2ccccc2)cnn1CCCN1[C@@H]2CC[C@H]1C[C@@H](OCc1ccccc1F)C2 [Example 58, (Endo)-2-{3-[3-(2-fluorobenzyloxy)-8-azabicyclo[3.2.1]oct-8-yl]propyl}-4-phenyl-2,4-dihydro[1,2,4]triazol-3-one] | 0.13 µM | 0.18 mg/kg |  |  |
| Cn1ccn2c(=O)n(CCCN3[C@@H]4CC[C@H]3C[C@@H](OCc3ccccc3F)C4)c(=O)nc12 [Example 174, (Endo)-3-{3-[3-(2-fluorobenzyloxy)-8-azabicyclo[3.2.1]oct-8-yl]propyl}-8-methyl-8H-imidazo[1,2-a][1,3,5]triazine-2,4-dione] | 0.89 µM | 0.21 mg/kg |  |  |
| Cc1nc(C)n(C)c(=O)c1CCN1[C@@H]2CC[C@H]1C[C@@H](OCc1ccccc1F)C2 [Example 184, (Endo)-5-{2-[3-(2-fluorobenzyloxy)-8-azabicyclo[3.2.1]oct-8-yl]ethyl}-2,3,6-trimethyl-3H-pyrimidin-4-one oxalate] | 7.6 µM | 0.19 mg/kg |  |  |
| Cc1nc2ccccn2c(=O)c1CCN1[C@@H]2CC[C@H]1C[C@@H](OCc1ccccc1F)C2 [Example 179, (Endo)-3-{2-[3-(2-fluorobenzyloxy)-8-azabicyclo[3.2.1]oct-8-yl]ethyl}-2-methylpyrido[1,2-a]pyrimidin-4-one oxalate] | 8.7 µM | 0.14 mg/kg |  |  |
| O=c1n(CCCN2[C@@H]3CC[C@H]2C[C@@H](OCc2ccccc2F)C3)nc2n1CCS2 [Example 116, (Endo)-2-{3-[3-(2-fluorobenzyloxy)-8-azabicyclo[3.2.1]oct-8-yl]propyl}-5,6-dihydro-2H-thiazolo[2,3-c][1,2,4]triazol-3-one] | 5.8 µM | 0.15 mg/kg |  |  |
| O=c1n(CCCN2[C@@H]3CC[C@H]2C[C@@H](CCc2ccccc2F)C3)nc2ccccn12 [Example 149, (Endo)-2-(3-{3-[2-(2-fluorophenyl)ethyl)-8-azabicyclo[3.2.1]oct-8-yl}propyl]-2H-[1,2,4]triazolo[4,3-a]pyridin-3-one] | 0.28 µM | 0.15 mg/kg |  |  |
| Cc1nn(C[C@H](F)CN2[C@@H]3CC[C@H]2C[C@@H](OCc2ccccc2F)C3)c(=O)n1C [Example 4, (Endo)-2-{(R)-2-fluoro-3-[3-(2-fluorobenzyloxy)-8-azabicyclo[3.2.1]oct-8-yl]propyl}-4,5-dimethyl-2,4-dihydro[1,2,4]triazol-3-one] | 5 µM | 0.23 mg/kg |  |  |
| Cc1nc(=O)n(C[C@@H](F)CN2C3CCC2CC(OCc2ccc(F)cc2)C3)c(=O)n1C (stereo partly drawn) [Example 12, (Endo)-3-{(S)-2-fluoro-3-[3-(4-fluorobenzyloxy)-8-azabicyclo[3.2.1]oct-8-yl]propyl}-1,6-dimethyl-1H-[1,3,5]triazine-2,4-dione oxalate] | 8.7 µM | 0.28 mg/kg |  |  |
| Cc1cccc(COC2CC3CCC(C2)N3CC(F)Cn2nc(N(C)C)n(C)c2=O)c1 (stereo not drawn) [Example 25, (Endo)-5-dimethylamino-2-{2-fluoro-3-[3-(3-methylbenzyloxy)-8-azabicyclo[3.2.1]oct-8-yl]propyl}-4-methyl-2,4-dihydro[1,2,4]triazol-3-one] | 0.71 µM | < 0.1 mg/kg |  |  |
